Data reported in patent US20090275648A1, “MACROCYCLIC GHRELIN RECEPTOR ANTAGONISTS AND INVERSE AGONISTS AND METHODS OF USING THE SAME” (priority 2005, published 2009).

How the values were obtained:
[1] = molecular target: T1, human ghrelin receptor (hGHS-R1a) (Homo sapiens, UniProt Q92847); assay: Competitive radioligand binding assay (ghrelin receptor), [125I]-ghrelin, GHS-R/HEK 293 membranes; conditions: competition with [125I]-ghrelin
T1 construct: purchased PerkinElmer BioSignal #RBHGHSM, lot#1887; host or cells: HEK-293 cells, stably transfected; membranes
T1 sequence (Q92847 whole entry): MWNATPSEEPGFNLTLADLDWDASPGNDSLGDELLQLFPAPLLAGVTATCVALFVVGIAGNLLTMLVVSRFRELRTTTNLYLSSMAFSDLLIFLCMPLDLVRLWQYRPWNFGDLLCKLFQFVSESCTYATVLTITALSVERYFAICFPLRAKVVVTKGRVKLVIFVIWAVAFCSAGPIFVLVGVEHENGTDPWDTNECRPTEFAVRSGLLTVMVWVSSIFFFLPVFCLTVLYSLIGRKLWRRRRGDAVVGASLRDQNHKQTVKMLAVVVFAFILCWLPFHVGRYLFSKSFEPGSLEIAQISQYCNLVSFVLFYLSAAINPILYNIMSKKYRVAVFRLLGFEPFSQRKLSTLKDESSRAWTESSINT
Method: The competitive binding assay at the human growth hormone secretagogue receptor (HGHS-R1a) was carried out analogously to assays described in the literature. (Bednarek M A et al. Structure-function studies on the new growth hormone-releasing peptide ghrelin: minimal sequence of ghrelin necessary for activation of growth hormone secretagogue receptor 1a; J. Med. Chem. 2000, 43, 4370-4376; Palucki, B. L. et al. Spiro(indoline-3,4′-piperidine) growth hormone secretagogues as ghrelin mimetics; Bioorg. Med. Chem. Lett. […], 11, 1955-1957).
Membranes (GHS-R/HEK 293) were prepared from HEK-293 cells stably transfected with the human ghrelin receptor (hGHS-R1a). These membranes were provided by PerkinElmer BioSignal (#RBHGHSM, lot#1887) and utilized at a quantity of 0.71 μg/assay point. • 1. [^125]-Ghrelin (PerkinElmer, #NEX-388); final concentration: 0.0070-0.0085 nM • 2. […] Multiscreen Harvest plates-GF/C (Millipore, #MAHFC1H60) • 4. Deep-well polypropylene titer plate (Beckman Coulter, #267006) • 5. TopSeal-A (PerkinElmer, #6005185) • 6. Bottom seal (Millipore, #MATAH0P00) • 7. MicroScint-0 (PerkinElmer, #6013611) • 8. Binding Buffer: 25 mM Hepes (pH 7.4), 1 mM CaCl2, 5 mM MgCl2, 2.5 mM EDTA, 0.4% BSA
Competition experiments were performed in a 300 μl filtration assay format. • 1. 220 μL of membranes diluted in binding buffer • 2. 40 μL of compound diluted in binding buffer • 3.
Compounds were provided frozen on dry ice at a stock concentration of 10 mM diluted in 100% DMSO and stored at −80° C. until the day of testing. On the test day, compounds were allowed to thaw at rt overnight and then diluted in assay buffer according to the desired test concentrations. Under these conditions, the maximal final DMSO concentration in the assay was 0.1%.
In deep-well plates, 220 μL of diluted cell membranes (final concentration: 0.71 μg/well) were combined with 40 μL of either binding buffer (total binding, N=5), 1 μM ghrelin (non-specific binding, N=3) or the appropriate concentration of test compound N=2 for each test concentration). […] Plates were sealed with TopSeal-A, vortexed gently and incubated at rt for 30 min. The reaction was arrested by filtering samples through Multiscreen Harvest plates (pre-soaked in 0.5% polyethyleneimine) using a Tomtec Harvester, washed 9 times with 500 μL of cold 50 mM Tris-HCl (pH 7.4, 4° C.), and then plates were air-dried in a fumehood for 30 min. A bottom seal was applied to the plates prior to the addition of 25 μL of MicroScint-0 to each well. Plates were than sealed with TopSeal-A and counted for 30 sec per well on a TopCount Microplate Scintillation and Luminescence Counter (PerkinElmer) using a count delay of 60 sec. Results were expressed as counts per minute (cpm).
Data were analyzed by GraphPad Prism (GraphPad Software, San Diego, Calif.) using a variable slope non-linear regression analysis.
Dmax values were calculated using the following formula: […]
where total and non-specific binding represent the cpm obtained in the absence or presence of 1 μM ghrelin, respectively.

[2] = molecular target: T2, ghrelin receptor (Homo sapiens, UniProt Q92847); assay: Aequorin functional assay (ghrelin receptor), Example 3; assay type: cell-based; set-up: host or cells: CHO-K1 cells co-expressing Gα16 and mitochondrially targeted Aequorin; conditions: for IC50: antagonist testing vs ghrelin at EC80 (3.7 nM)
T2 sequence (Q92847 whole entry): as above
From the text: The functional activity of compounds of the invention found to bind to the GHS-R1a receptor can be determined using the method described below. (LePoul, E.; et al. Adaptation of aequorin functional assay to high throughput screening. J. Biomol. Screen. 2002, 7, 57-65; Bednarek, M. A.; et al. Structure-function studies on the new growth hormone-releasing peptide ghrelin: minimal sequence of ghrelin necessary for activation of growth hormone secretagogue receptor 1a. J. Med. Chem. 2000, 43, 4370-4376; Palucki, B. L.; et al. Spiro(indoline-3,4′-piperidine) growth hormone secretagogues as ghrelin mimetics. Bioorg. Med. Chem. Lett. 2001, 11, 1955-1957).
Membranes were prepared using AequoScreen™ (EUROSCREEN, Belgium) cell lines expressing the human ghrelin receptor (cell line ES-410-A; receptor accession #60179). This cell line is constructed by transfection of the human ghrelin receptor into CHO-K1 cells co-expressing Gα16 and the mitochondrially targeted Aequorin (Ref #ES-WT-A5). • 1. Ghrelin (reference agonist; Bachem, #H-4864) • 2. Assay buffer: DMEM (Dulbecco's Modified Eagles Medium) containing 0.1% BSA (bovine serum albumin; pH 7.0. • 3. Coelenterazine (Molecular Probes, Leiden, The Netherlands)
Stock solutions of compounds (10 mM in 100% DMSO) were provided frozen on dry ice and stored at −20° C. prior to use. From the stock solution, mother solutions were made at a concentration of 500 μM 20-fold dilution in 26% DMSO. Assay plates were then prepared by appropriate dilution in DMEM medium containing 0.1% BSA. Under these conditions, the maximal final DMSO concentration in the assay was <0.6%.
AequoScreen™ cells were collected from culture plates with Ca^2+ and Mg^2+-free phosphate buffered saline (PBS) supplemented with 5 mM EDTA, pelleted for 2 minutes at 1000×g, re-suspended in DMEM-Ham's F12 containing 0.1% BSA at a density of 5×10^6 cells/ml and incubated overnight at room temperature in the presence of 5 μM coelenterazine. After loading, cells were diluted with assay buffer to a concentration of 5×10^5 cells/ml.
For agonist testing, 50 μl of the cell suspension was mixed with 50 μl of the appropriate concentration of test compound or ghrelin (reference agonist) in 96-well plates (duplicate samples). Ghrelin (reference agonist) is tested at several concentrations concurrently with the test compounds in order to validate the experiment. The emission of light resulting from receptor activation in response to ghrelin or test compounds was recorded using the Hamamatsu FDSS 6000 reader (Hamamatsu Photonics K.K., Japan).
For antagonist testing, an approximate EC80 concentration of ghrelin (i.e. 3.7 nM; 100 μL) was injected onto the cell suspension containing the test compounds (duplicate samples) 15-30 minutes after the end of agonist testing and the consequent emission of light resulting from receptor activation was measured as described in the paragraph above.
Results are expressed as Relative Light Units (RLU). […] For agonist testing, results for each concentration of test compound were expressed as percent activation relative to the signal induced by ghrelin at a concentration equal to the EC80 (i.e. 3.7 nM). EC50, Hill slope and % Emax values are reported.
For antagonist testing, results for each concentration of test compound were expressed as percent inhibition relative to the signal induced by ghrelin at a concentration equal to the EC80.

[3] = molecular target: T2, ghrelin receptor; assay: Inverse agonist assay, Example 4; assay type: cell-based; conditions: inverse agonist activity
From the text: The inverse agonist activity at the ghrelin receptor for compounds of the invention can be determined using the methods described in Intl. Pat. Appl. Publ. No. WO 2004/056869 and Holst, B.; Cygankiewicz, A.; Halkjaer, T.; Ankersen, A.; Schwartz, T. W. High constitutive signaling of the ghrelin receptor—identification of a potent inverse agonist. Mol. Endocrinol. 2003, 17, 2201-2210.

Compound	Ki [1] [nM]	IC50 [2] [nM]	IC50 [3] [nM]	receptor activation (agonist activity) ([2]; agonist testing, in comparison to known ghrelin agonists)
CCC[C@@H]1NCCOc2ccccc2CCCNC(=O)[C@@H](Cc2ccccc2)NC(=O)[C@H](C)NC1=O [Compound 59]	1000 to 10000	–	–	–
CCC(C)[C@@H]1NCCOc2ccccc2/C=C\CNC(=O)[C@@H](Cc2ccc(F)cc2)NC(=O)[C@H](C(C)O)N(C)C1=O (stereo partly drawn) [Compound 508]	1 to 100	100 to 1500	–	–
CCC(C)[C@@H]1NCCOc2ccccc2CCCNC(=O)[C@@H](Cc2ccccc2)NC(=O)[C@@H](CO)N(C)C1=O (stereo in doubt) [Compound 152]	100 to 1000	100 to 1500	> 10000	no receptor activation
CC(O)[C@H]1C(=O)N[C@H](Cc2ccc(F)cc2)C(=O)NCCCc2ccccc2O[C@H](C)CN[C@@H](C2CC2)C(=O)N1C (stereo partly drawn) [Compound 505]	100 to 1000	100 to 1500	100 to 1000	–
CCC(C)[C@@H]1NCCOc2ccccc2CCCNC(=O)[C@@H](Cc2ccccc2)NC(=O)[C@@H](COC(C)(C)C)NC1=O (stereo partly drawn) [Compound 215]	1000 to 10000	–	–	–
CCC(C)[C@@H]1NCCOc2ccccc2CCCNC(=O)[C@@H](Cc2ccc(F)cc2)NC(=O)[C@@H](COCc2ccccc2)N(C)C1=O (stereo partly drawn) [Compound 501]	100 to 1000	–	–	–
CCC[C@@H]1NCCOc2ccccc2CCCNC(=O)[C@@H](Cc2ccccc2)NC(=O)[C@@H](C)NC1=O [Compound 60]	100 to 1000	–	–	–
CCC(C)[C@@H]1NCCOc2ccccc2CCCNC(=O)[C@@H](Cc2ccccc2)NC(=O)[C@@H](C)NC1=O (stereo partly drawn) [Compound 2]	100 to 1000	–	–	–
CC(C)C[C@@H]1NCCOc2ccccc2CCCNC(=O)[C@H](Cc2ccccc2)NC(=O)[C@H](C)NC1=O [Compound 93]	1000 to 10000	–	–	–
CC(C)C[C@@H]1NCCOc2ccccc2CCCNC(=O)[C@H](Cc2ccccc2)NC(=O)[C@@H](C)NC1=O [Compound 94]	1000 to 10000	–	–	–
CCC(C)[C@@H]1NCCOc2ccccc2CCCNC(=O)[C@@H](Cc2ccccc2)NC(=O)[C@H](C(C)O)N(C)C1=O (stereo partly drawn) [Compound 503]	1 to 100	1 to 100	100 to 1000	–
CCC(C)[C@@H]1NCCOc2ccccc2CCCNC(=O)[C@@H](Cc2ccccc2)NC(=O)[C@@H](CO)NC1=O (stereo partly drawn) [Compound 151]	1000 to 10000	–	–	–
CC[C@@H](C)[C@H]1NCCOc2ccccc2CCCNC(=O)[C@@H](Cc2ccccc2)NC(=O)[C@H]([C@H](C)O)N(C)C1=O [Compound 509]	100 to 1000	> 1500	–	–
CCC(C)[C@@H]1NCCOc2ccccc2/C=C/CNC(=O)[C@H](Cc2ccccc2)NC(=O)[C@@H](C)NC1=O (stereo partly drawn) [Compound 14]	100 to 1000	–	–	–
CCC(C)[C@@H]1NCCOc2ccccc2/C=C/CNC(=O)[C@@H](Cc2ccc(F)cc2)NC(=O)[C@H](C(C)O)N(C)C1=O (stereo partly drawn) [Compound 504]	1 to 100	1 to 100	100 to 1000	–
CCC(C)[C@@H]1NCCOc2ccccc2CCCNC(=O)[C@@H](Cc2ccccc2)NC(=O)[C@H](CCO)N(C)C1=O (stereo partly drawn) [Compound 506]	100 to 1000	100 to 1500	> 10000	–
CCC[C@@H]1NCCOc2ccccc2CCCNC(=O)[C@@H](Cc2ccccc2)NC(=O)[C@H](C)N(C)C1=O [Compound 79]	100 to 1000	–	–	–
